In PubChem BioAssay (NCI):
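GI50 = concentration required for 50% inhibition of growth. At the TGI there is no net growth.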

Key:
Test in all cases: NCI anticancer screen, dose series, 384-well format
[1] = system: NCI-H322M lung
[2] = system: NCI-H460 NSCLC
[3] = system: HT29 colon
[4] = system: MALME-3M melanoma
[5] = system: NCI-H23 lung
[6] = system: COLO 205 colon
[7] = system: HS 578T breast
[8] = system: HCT-15 colon
[9] = system: U251 glioblastoma
[10] = system: T-47D breast
[11] = system: TK-10 renal
[12] = system: MOLT-4 leukemia
[13] = system: SF-268 CNS
[14] = system: OVCAR-4 ovarian
[15] = system: CAKI-1 renal
[16] = system: MDA-MB-435 melanoma
[17] = system: IGROV1 ovarian
[18] = system: HOP-62 NSCLC
[19] = system: SF-295 CNS
[20] = system: A498 renal
[21] = system: MCF7 breast
[22] = system: A549 NSCLC
[23] = system: HOP-92 NSCLC
[24] = system: MDA-MB-231 breast
[25] = system: BT-549 breast
[26] = system: HCT-116 colon
[27] = system: SK-OV-3 ovarian

With `COC1CCN(C(=O)c2cc(Cc3n[nH]c(=O)c4ccccc34)ccc2F)CC1` the GI50 [1] was over 100 µM, the TGI [1] was over 100 µM and the GI50 [2] was 5.93 µM. It also gave a TGI [2] of 56.1 µM, a GI50 [3] of over 100 µM and a TGI [3] of over 100 µM. The GI50 [4] was over 100 µM, the TGI [4] was over 100 µM and the GI50 [5] was 59.7 µM. It also gave a TGI [5] of over 100 µM, a GI50 [6] of over 100 µM and a TGI [6] of over 100 µM. The GI50 [7] was over 100 µM, the TGI [7] was over 100 µM and the GI50 [8] was over 100 µM. The TGI [8] was over 100 µM, the GI50 [9] was 25.8 µM and the TGI [9] was over 100 µM. It also gave a GI50 [10] of over 100 µM, a TGI [10] of over 100 µM and a GI50 [11] of over 100 µM. It also gave a TGI [11] of over 100 µM, a GI50 [12] of 4.06 µM and a TGI [12] of 14.2 µM. For the same molecule, the GI50 [13] was 44.5 µM, the TGI [13] was over 100 µM and the GI50 [14] was over 100 µM. It also gave a TGI [14] of over 100 µM, a GI50 [15] of over 100 µM and a TGI [15] of over 100 µM. For the same molecule, the GI50 [16] was over 100 µM, the TGI [16] was over 100 µM and the GI50 [17] was over 100 µM. The TGI [17] was over 100 µM, the GI50 [18] was 10.4 µM and the TGI [18] was 49.8 µM. The GI50 [19] was 11.4 µM, the TGI [19] was over 100 µM and the GI50 [20] was over 100 µM. For the same molecule, the TGI [20] was over 100 µM, the GI50 [21] was 68.1 µM and the TGI [21] was over 100 µM. It also gave a GI50 [22] of over 100 µM, a TGI [22] of over 100 µM and a GI50 [23] of over 100 µM. The TGI [23] was over 100 µM, the GI50 [24] was 81 µM and the TGI [24] was over 100 µM. It also gave a GI50 [25] of 84.6 µM, a TGI [25] of over 100 µM and a GI50 [26] of 28.7 µM. The TGI [26] was over 100 µM, the GI50 [27] was 32.3 µM and the TGI [27] was over 100 µM.
